Earlier results on one compound are cited in publication PMC5848258 (Clinical Infectious Diseases: An Official Publication of …, 2017).

Structures are written as SMILES.

For this data set the following is noted: cited from earlier work.

`C=C(C)[C@@H]1CC[C@]2(C(=O)O)CC[C@]3(C)[C@H](CC[C@@H]4[C@@]5(C)CC[C@H](OC(=O)CC(C)(C)C(=O)O)C(C)(C)[C@@H]5CC[C@]43C)[C@@H]12` [BVM, 3-o-(3’,3’-dimethylsuccinyl)betulinic acid, reference compound]: the Protein binding is given as greater than 99%.
